Experimental data from patent publication US20250326748A1, “COMPOUNDS AND METHODS FOR MODULATING SPLICING” (REMIX THERAPEUTICS INC., priority 2022, published 2025).
Where a name gives a salt, the structure may show the parent alone. Read-outs that look alike come from different tables or passages of the source.

Experiments:
[1] = tested on: HTT mRNA; experiment: Splicing RT-qPCR assay, HTT canonical (CJ) and alternative (AJ) junction mRNA; assay type: cell-based, human; conditions: Homo sapiens; for IC50: canonical junction mRNA; for AC50: alternative junction mRNA, read-out: HTT AJ (AC50, increase in AJ mRNA)
Outline: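 One-step RT-qPCR on cell lysates quantified CJ and AJ isoforms, normalized to PPIA for A673 or GAPDH/GUSB for K562. Cells were exposed for 24 h at 37° C to 11 concentrations in 3-fold steps up to 10 uM, with DMSO ≤0.25%. A673 were grown in DMEM and K562 in IMDM, both with 10% FBS.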

[2] = tested on: HiBiT-tagged MYB protein; experiment: HiBiT protein abundance assay, MYB (K562 HiBiT knock-in); assay type: cell-based, human; conditions: HiBiT knock-in cells, 24 hours
Protocol: Compounds described herein were used to screen for effects on quantitative protein abundance using a HiBit assay system (Promega). Quantitative protein abundance was determined by measuring the protein levels of HiBit-tagged protein targets expressed in cell culture via luminescence using the Nano-Glo HiBiT Lytic Detection System, which uses a split complementation assay format to reconstitute NanoBiT enzyme to generate a luminescent signal. A protein abundance assay was developed such that endogenous protein targets could be modified with the HiBiT peptide tag and their abundance could be assessed after compound treatment. Briefly, K562 cell lines containing a HiBiT-modification were treated with various compounds described herein (e.g., compounds of Formulas (I), or (II)). After treatment for 24 hours, the protein abundance of a specific target was determined by measuring luminescence.
• Promega Nano-Glo HiBiT Lytic Detection System (cat #N3030) • Corning 384-well TC-treated microplates (cat #3570)
Cells were maintained in IMDM with 10% FBS. Before the assay, cells were diluted with […] growth media (IMDM+1% FBS media) and were seeded in a 384-well plate at a density of 10000 cells/well (for each cell line listed in Table 6). Each compound was prepared as a 10-point 3-old serial dilution in DMSO with the top dose at a final concentration of 10 μM in the well. Unmodified K562 cells were added at the previously specified density with DMSO to serve as an assay baseline and positive control (PC) and DMSO only with the respective modified cell lines was added to the negative control (NC) columns. Final DMSO concentration was kept at or below 0.25%. Treated cell plates were placed in an incubator at 37° C. with 5% CO2 for 24 hours. After 24 hours, 25 μL of Complete HiBit Lytic reagent was added to each well at room temperature (e.g. one plate requiring 10 ml Lytic Buffer, 100 μL LgBiT Protein, 200 μL Lytic Substrate), shaken for 5 minutes at 600 RPM, then left to sit for 10 minutes for signal to stabilize before reading on a Spark Cyto plate reader (Tecan) with a 500 ms measurement time.
To determine compound effects on protein abundance of each target in Table 6, the percent response for each respective cell line was calculated at each compound concentration as follows:
For the normalized response at each concentration, a four-parameter logistical regression was fit to the data and the response was interpolated at the 50% value to determine a concentration for protein abundance at 50% (IC50) the untreated control.

[3] = tested on: K562 cells; experiment: Cell viability, Cell Titer Glo 2.0 assay, K562; conditions: 72 hours
[4] = 24 h, RT-qPCR, A673 or K562 cells, 24 hours treatment, read-out: HTT CJ (IC50, decrease in CJ mRNA)
[5] = qPCR panel, read-out: HTT CJ (decrease in CJ mRNA levels, IC50)
[6] = RT-qPCR, A673 or K562 cells, 24 hours treatment

SMILES	IC50 [1, 4]	IC50 [1, 5]	IC50 [2]	AC50 [1, 6]	Effect on Cell Viability, K562 [3]
CN[C@@H]1CN(c2cnc3nc(-c4cc5cn(C)nc5c(C)c4O)ccc3c2)C[C@H]1F (single isomer, unassigned) [Compound 130]	100 to 1000 nM	100 to 1000 nM	100 to 1000 nM	100 to 1000 nM	B (100-1000 nM)
CN[C@@H]1CCN(c2cnc3nc(-c4cc5cn(C)nc5c(C)c4O)cc(Cl)c3c2)C1 [Compound 286, 5-{4-chloro-6-[(3R)-3-(methylamino)pyrrolidin-1-yl]-1,8-naphthyridin-2-yl}-2,7-dimethylindazol-6-ol hydrochloride]	< 100 nM	< 100 nM	< 100 nM	< 100 nM	A (<100 nM)
Cc1c(O)c(-c2cc(Cl)c3cc(N4C[C@@H](C)N[C@@H](C)C4)cnc3n2)cc2cn(C)nc12 [Compound 149]	100 to 1000 nM	100 to 1000 nM	< 100 nM	100 to 1000 nM	B (100-1000 nM)
CNC1CCN(c2cnc3nc(-c4cc5cn(C)nc5c(C)c4O)cc(Cl)c3c2)C1 (stereo not shown) [Compound 142, 5-{4-chloro-6-[3-(methylamino)351pyrrolidine-1-yl]-1,8-naphthyridin-2-yl}-2,7-dimethylindazol-6-ol]	< 100 nM	< 100 nM	< 100 nM	100 to 1000 nM	A (<100 nM)
Cc1cn2nc(-c3cc(Cl)c4cc(N5CCC(N6CCC6)CC5)cnc4n3)cc(C)c2n1 [Compound 349]	100 to 1000 nM	100 to 1000 nM	< 100 nM	100 to 1000 nM	B (100-1000 nM)
C[C@@H]1CN(c2cnc3nc(-c4ccc5nn(C)cc5c4)cc(Cl)c3c2)C[C@H](C)N1 [Compound 320, 4-chloro-6-[(3R,5S)-3,5-dimethylpiperazin-1-yl]-2-(2-methylindazol-5-yl)-1,8-naphthyridine]	> 10000 nM	> 10000 nM	1000 to 10000 nM	> 10000 nM	C (1000-9999 nM)
Cc1c(O)c(-c2ccc3c(Cl)c(N4CCNCC4)cnc3n2)cc2cn(C)nc12 [Compound 278, 5-[5-chloro-6-(piperazin-1-yl)-1,8-naphthyridin-2-yl]-2,7-dimethylindazol-6-ol]	1000 to 10000 nM	1000 to 10000 nM	< 100 nM	1000 to 10000 nM	A (<100 nM)
Cc1cn2nc(-c3ccc4cc(N5C[C@@H](C)N[C@@H](C)C5)cnc4n3)cc(C)c2n1 [Compound 330]	100 to 1000 nM	100 to 1000 nM	100 to 1000 nM	100 to 1000 nM	B (100-1000 nM)
Cn1cc2cc(-c3ccc4cc(N5CC[C@@H](NCC6CC6)C5)cnc4n3)c(O)cc2n1 [Compound 313]	100 to 1000 nM	100 to 1000 nM	100 to 1000 nM	100 to 1000 nM	B (100-1000 nM)
C[C@@H]1CN(c2cnc3nc(-c4cc(F)c5nn(C)cc5c4)cc(Cl)c3c2)CCN1 [Compound 295, 4-chloro-2-(7-fluoro-2-methylindazol-5-yl)-6-[(3R)-3-methylpiperazin-1-yl]-1,8-naphthyridine]	100 to 1000 nM	100 to 1000 nM	100 to 1000 nM	100 to 1000 nM	B (100-1000 nM)
C[C@@H]1CN(c2cnc3nc(-c4cc5cn(C)nc5cc4O)ccc3c2)C[C@H](C)N1 [Compound 343]	100 to 1000 nM	1000 to 10000 nM	100 to 1000 nM	1000 to 10000 nM	B (100-1000 nM)
Cc1cn2nc(-c3cc(Cl)c4cc(N5C[C@H](C)N[C@@H](C)C5)cnc4n3)cc(C)c2n1 [Compound 336]	100 to 1000 nM	100 to 1000 nM	< 100 nM	100 to 1000 nM	B (100-1000 nM)
Cc1c(O)c(-c2cc(Cl)c3cc(N4CCNC(C)C4)cnc3n2)cc2cn(C)nc12 (stereo not shown) [Compound 147]	100 to 1000 nM	100 to 1000 nM	100 to 1000 nM	100 to 1000 nM	B (100-1000 nM)

Now from value to compound, other results behind:

IC50 [1, 4]	IC50 [1, 5]	IC50 [2]	SMILES	AC50 [1, 6]	Effect on Cell Viability, K562 [3]
100 to 1000 nM	100 to 1000 nM	< 100 nM	Cn1cc2cc(-c3cc(Cl)c4cc(N5CCNC6(CC6)C5)cnc4n3)c(O)c(F)c2n1 [Compound 274]	100 to 1000 nM	B (100-1000 nM)
100 to 1000 nM	100 to 1000 nM	< 100 nM	C[C@@H]1CN(c2cnc3nc(-c4cc5cn(C)nc5c(F)c4O)cc(Cl)c3c2)C[C@H](C)N1 [Compound 279]	100 to 1000 nM	A (<100 nM)
100 to 1000 nM	100 to 1000 nM	< 100 nM	CN[C@@H]1CN(c2cnc3nc(-c4cc5cn(C)nc5c(C)c4O)ccc3c2)C[C@@H]1C [Compound 128]	100 to 1000 nM	A (<100 nM)
1000 to 10000 nM	1000 to 10000 nM	100 to 1000 nM	C[C@H]1CN(c2cnc3nc(-c4cc(F)c5nn(C)cc5c4)cc(Cl)c3c2)C[C@@H](C2CC2)N1 [Compound 288]	1000 to 10000 nM	B (100-1000 nM)
100 to 1000 nM	100 to 1000 nM	100 to 1000 nM	CN[C@@H]1CN(c2cnc3nc(-c4cc5cn(C)nc5c(C)c4O)ccc3c2)C[C@H]1C [Compound 126, 2,7-dimethyl-5-{6-[(3R,4S)-3-methyl-4-(methylamino)382pyrrolidine-1-yl]-1,8-naphthyridin-2-yl}indazol-6-ol]	1000 to 10000 nM	B (100-1000 nM)
100 to 1000 nM	100 to 1000 nM	100 to 1000 nM	Cc1cn2nc(-c3cc(Cl)c4cc(N5C[C@@H](C)N[C@@H](C)C5)cnc4n3)cc(C)c2n1 [Compound 335, 4-chloro-2-{2,8-dimethylimidazo[1,2-b]478pyridazine-6-yl}-6-[(3R,5S)-3,5-dimethylpiperazin-1-yl]-1,8-naphthyridine]	1000 to 10000 nM	B (100-1000 nM)
1000 to 10000 nM	1000 to 10000 nM	100 to 1000 nM	C[C@@H]1CN(c2cnc3nc(-c4cc5cn(C)nc5c(F)c4O)cc(C4CC4)c3c2)C[C@H](C)N1 [Compound 305, 5-{4-cyclopropyl-6-[(3R,5S)-3,5-dimethylpiperazin-1-yl]-1,8-naphthyridin-2-yl}-7-fluoro-2-methylindazol-6-ol]	1000 to 10000 nM	C (1000-9999 nM)
100 to 1000 nM	100 to 1000 nM	100 to 1000 nM	CN[C@H]1CN(c2cnc3nc(-c4cc5cn(C)nc5c(C)c4O)ccc3c2)C[C@H]1F [Compound 129, 5-{6-[(3R,4S)-3-fluoro-4-(methylamino)pyrrolidin-1-yl]-1,8-naphthyridin-2-yl}-2,7-dimethylindazol-6-ol]	100 to 1000 nM	B (100-1000 nM)
< 100 nM	< 100 nM	< 100 nM	C[C@@H]1CN(c2cnc3nc(-c4cc5cn(C)nc5c(F)c4O)cc(Cl)c3c2)C[C@@H](C)N1 [Compound 281]	100 to 1000 nM	A (<100 nM)
1000 to 10000 nM	1000 to 10000 nM	< 100 nM	CN(c1cnc2nc(-c3cc4cn(C)nc4c(F)c3O)cc(Cl)c2c1)[C@H]1CCNC1 [Compound 275]	1000 to 10000 nM	A (<100 nM)
